In patent publication EP0051687A1, “Maleimides and process for the preparation of same” (MITSUI TOATSU CHEMICALS, Inc., priority 1980, dated 1982):

Test: Solubility in organic solvents at room temperature
Format: physicochemical

With `CC(C)(c1ccc(O)cc1)c1ccc(N2C(=O)C=CC2=O)cc1` [2-(4'-hydroxyphenyl)-2-(4"-maleimidophenyl) propane] the “Solubility of 2-(4'-hydroxyphenyl)-2-(4"-maleimidophenyl) propane (at room temperature )” value (“Solubility” below) (Organic Solvent: Acetone) was 50 wt.% or higher, the “Solubility” value (Organic Solvent: Dimethylformamide) was 50 wt.% or higher and the “Solubility” value (Organic Solvent: Dioxane) was 36 wt.%. For the same molecule, the “Solubility” value (Organic Solvent: Ethanol) was 11 wt.%, the “Solubility” value (Organic Solvent: Methanol) was 20 wt.% and the “Solubility” value (Organic Solvent: Methyl ethyl ketone) was 46 wt.%. For the same molecule, the “Solubility” value (Organic Solvent: Tetrahydrofuran) was 50 wt.% or higher.
